Assay results published in patent US20140341916A1, “THERAPEUTIC COMBINATIONS AND METHODS OF TREATING MELANOMA” (Genentech, Inc., priority 2011, published 2014).

Columns and labels:
[1] = test system: ETBR transcript; test: ETBR transcript level in melanoma cell lines, Taqman, normalized to RPL19; type: cell-based, human; conditions: A2058 cells, 24 h
Experimental: (§1) Melanoma cell lines UACC-257X2.2, A2058, COLO 829, IPC-298 (ATCC) were treated with a BRAF inhibitor drug (“BRAFi”), specifically RG7204 at varying concentrations by adding the appropriate drug volume to cells in culture for 24 h on four-well dishes.
(§2) To determine the effect of BRAFi on ETBR and control ribosomal protein L19 (RPL19) transcript levels, the following experiments were performed. Cells treated with RG7204 for 24 h were harvested from plates by scraping and processed for total RNA using Qiashredder and RNeasy mini kits (79654, 74104 from Qiagen, Valencia, Calif.). Taqman assays were set up using reagents from Applied Biosystems (ABI, Foster City, Calif.) and assayed using 7500 Real Time PCR machine and software from ABI. Primer-probe sets were designed with primers flanking a fluorogenic probe dual labeled with Reporter dye FAM and quencher dye TAMRA.
(§3) Melanoma cell lines A2058, COLO 829, SK23-MEL and IPC-298 (ATCC) were treated with a MEK inhibitor drug (“MEKi-973” or “MEKi-623”), at varying concentrations (0 μM, 0.01 μM, 0.1 μM or 1 μM) by adding the appropriate drug volume to cells in culture for 24 h on four-well dishes.
as §2, with “MEKi” for “BRAFi”, “ETBR” for “ETBR and control ribosomal protein L19 (RPL19)”, “performed as described above in Example 3.” for “performed.”, “either MEKi-973” for “RG7204”

[2] = test system: ETBR total protein; test: ETBR total protein in melanoma cell lines, Western blot; type: cell-based, human; conditions: 24 h
Experimental: as §1
To test whether the increase in ETBR transcripts due to BRAFi treatment also results in any changes in ETBR total protein levels, Western blot experiments were performed on the same cell lines treated with BRAFi RG7204 as described above. For Western blotting, the following reagents were used: for detection of proteins: an anti-ETBR in-house generated monoclonal antibody 1H1.8.5, anti-Phospho-p44/42 MAPK (Erk1/2) (Thr202/Tyr204) antibody (9101, Cell Signaling Technology), anti-p44/42 MAPK (Erk1/2) antibody (9102, Cell Signaling Technology) and as controls, a rabbit polyclonal anti-GAPDH (glyceraldehyde-3-phosphate dehydrogenase) antibody (PA1-987; Affinity Bioreagents) and mouse monoclonal anti-β-Tubulin antibody (556321, BD Pharmingen). The results for UACC-257X2.2 are shown in FIG. 4B, the results for A2058 are shown in FIG. 8B, the results for COLO 829 are shown in FIG. 6B and the results for IPC-298 are shown in FIG. 10.
as §3
To test whether the increase in ETBR transcripts due to MEKi treatment also results in any changes in ETBR total protein levels, Western blot experiments were performed on cell lines COLO829 (BRAF^V600E), A2058 (BRAF^V600E), SK23-MEL (BRAF^WT/RAS^WT), or IPC-298 (BRAF^WT/RAS^[…]) which were treated with MEKi-973 as described above. For Western blotting, the following reagents were used: for detection of proteins: an anti-ETBR in-house generated monoclonal antibody 1H1.8.5, anti-Phospho-p44/42 MAPK (Erk1/2) (Thr202/Tyr204) antibody (9101, Cell Signaling Technology), anti-p44/42 MAPK (Erk1/2) antibody (9102, Cell Signaling Technology) and as controls, a rabbit polyclonal anti-GAPDH (glyceraldehyde-3-phosphate dehydrogenase) antibody (PA1-987; Affinity Bioreagents) and mouse monoclonal anti-β-Tubulin antibody (556321, BD Pharmingen). The results for A2058 are shown in FIG. 15A treated with MEKi-623 and 15B treated with MEKi-973, the results for COLO 829 are shown in FIG. 12A treated with MEKi-623 and 12B treated with MEKi-973, the results for SK23-MEL are shown in FIG. 19A treated with MEKi-623 and 19B treated with MEKi-973, and the results for IPC-298 are shown in FIG. 22A treated with MEKi-623 and 22B treated with MEKi-973.

[3] = test system: ETBR transcript; test: PD study, ETBR transcript in A2058 tumors, Taqman, normalized to Hprt1; type: in vivo, mice; conditions: MEKi-973 5 mpk and 10 mpk orally once a day for 3 days
Experimental: A2058 or COLO 829 tumors were grown to an average size of approximately 200 mm^3, whereupon animals were randomized into groups of 5-6 each. For the BRAFi PD study, an appropriate vehicle control (Klucel LF) or RG7204 at doses of 10 mpk or 30 mpk were administered twice a day for 3 days (FIG. 27A). For the MEKi PD study, an appropriate vehicle control or MEKi-973 at doses of 5 mpk and 10 mpk were administered orally once a day for 3 days (FIG. 27B). Flash frozen tumors harvested at end of study were homogenized and processed for RNA and/or protein. Taqman assays were set up using reagents from Applied Biosystems (ABI, Foster City, Calif.) and assayed using 7500 Real Time PCR machine and software from ABI. Primer-probe sets were designed with primers flanking a fluorogenic probe dual labeled with Reporter dye FAM and quencher dye TAMRA. ETBR transcript levels in the tumors were normalized against transcript levels of reference genes such as Hprt1 (hypoxanthine phosphoribosyltransferase 1) or GAPDH (glyceraldehyde 3 phosphate dehydrogenase) using primer and probe sets that were specific to the human homologs of these genes.

[4] = test system: ETBR surface protein; test: Surface ETBR protein in live melanoma cells, FACS; type: cell-based, human; conditions: 24 h
Experimental: as §1
(§4) To determine whether the observed increases in total ETBR protein level due to BRAFi treatment also results in an increase of ETBR surface protein levels, a fluorescence-activated cell sorting (FACS) analysis was performed. Cells were harvested in PBS with 2.5 mmol/L EDTA and washed in PBS buffer containing 1% FBS. All subsequent steps were carried out at 4° C. Cells were incubated for 1 hour with 3 μg/mL anti ETBR antibody Hu5E9v1, followed by anti-human IgG fluorescent detection reagent (A11013; Invitrogen). Cells were then analyzed with a FACS Calibur flow cytometer (BD Biosciences). The results for UACC-257X2.2 are shown in FIG. 4C, the results for A2058 are shown in FIG. 8C, and the results for COLO 829 are shown in FIG. 6C.
as §3
as §4, with “MEKi” for “BRAFi”, “performed as described above.” for “performed.”, “Biosciences).” for “Biosciences). The results for UACC-257X2.2 are shown in FIG. 4C, the results for A2058 are shown in FIG. 8C, and the results for COLO 829 are shown in FIG. 6C.”

Q: What does the source list for O=C(c1ccc(F)c(F)c1Nc1ccc(I)cc1F)N1CC(O)([C@@H]2CCCCN2)C1 [MEKi-973, (S)-(3,4-difluoro-2-((2-fluoro-4-iodophenyl)amino)phenyl)(3-hydroxy-3-(piperidin-2yl)azetidin-1-yl)methanone]?
A: ETBR transcript vs untreated control cells [1]: appears to increase the ETBR transcripts; ETBR total protein level vs untreated control cells ([2]; A2058 cells (BRAF V600E)): appears to increase the ETBR total protein levels; ETBR total protein level vs untreated control cells ([2]; COLO 829 cells (BRAF V600E)): appears to increase the ETBR total protein levels; ETBR total protein level vs untreated control cells ([2]; IPC-298 cells (BRAF wild-type, RAS mutant)): appears to increase the ETBR total protein levels; ETBR total protein level vs untreated control cells ([2]; SK23-MEL cells (BRAF WT/RAS WT)): appears to increase the ETBR total protein levels; ETBR mRNA in tumors vs control vehicle [3]: induces ETBR mRNA in vivo; surface level of ETBR protein vs untreated control cells ([4]; A2058 cells): appears to increase the surface levels of ETBR protein; surface level of ETBR protein vs untreated control cells ([4]; COLO 829 cells): appears to increase the surface levels of ETBR protein; surface level of ETBR protein vs untreated control cells ([4]; IPC-298 cells): appears to increase the surface levels of ETBR protein; surface level of ETBR protein vs untreated control cells ([4]; SK23-MEL cells): appears to increase the surface levels of ETBR protein
